From PubChem BioAssay (NCI)
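Growth conditions: 96-well plates. Treatment: test compound, 48 hours, 5 concentrations. Analysis: linear interpolation between bracketing concentrations; unreached endpoints set to highest concentration. GI50 marks 50% less growth. The concentration for full growth arrest is given as TGI.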

Assays:
Test in all cases: NCI tumour cell line growth inhibition, 48 h
U251 CNS = system: U251 CNS
OVCAR-5 ovarian = system: OVCAR-5 ovarian
HCT-15 colon = system: HCT-15 colon
CCRF-CEM leukemia = system: CCRF-CEM leukemia
UACC-257 melanoma = system: UACC-257 melanoma
SW-620 colon = system: SW-620 colon
T-47D breast = system: T-47D breast
SF-268 CNS = system: SF-268 CNS
SF-539 CNS = system: SF-539 CNS
EKVX NSCLC = system: EKVX NSCLC
RPMI-8226 leukemia = system: RPMI-8226 leukemia
MDA-MB-435 = system: MDA-MB-435
MCF7 breast = system: MCF7 breast
A549 NSCLC = system: A549 NSCLC
SNB-75 CNS = system: SNB-75 CNS
NCI-H522 lung = system: NCI-H522 lung
SK-MEL-5 melanoma = system: SK-MEL-5 melanoma
SK-MEL-28 melanoma = system: SK-MEL-28 melanoma
CAKI-1 renal = system: CAKI-1 renal
HCT-116 colon = system: HCT-116 colon
NCI-H226 lung = system: NCI-H226 lung
786-0 renal = system: 786-0 renal
BT-549 breast = system: BT-549 breast
OVCAR-8 ovarian = system: OVCAR-8 ovarian
SK-MEL-2 melanoma = system: SK-MEL-2 melanoma
HT29 colon = system: HT29 colon
OVCAR-3 ovarian = system: OVCAR-3 ovarian
KM12 colon = system: KM12 colon
ACHN renal = system: ACHN renal

## C=C1CCC2C3(C)COC(c4ccccc4)OC3CCC2(C)C1CC(Sc1ccccc1)C1=CCOC1=O (stereo not drawn)
U251 CNS
  GI50: 9.9 µM
  TGI: 26.5 µM
OVCAR-5 ovarian
  GI50: 25.9 µM
  TGI: > 100 µM
HCT-15 colon
  GI50: 5.12 µM
  TGI: 45 µM
CCRF-CEM leukemia
  GI50: 2.35 µM
  TGI: 8.71 µM
UACC-257 melanoma
  GI50: 33.6 µM
  TGI: > 100 µM
SW-620 colon
  GI50: 3.31 µM
  TGI: > 100 µM
T-47D breast
  GI50: 5.2 µM
  TGI: > 100 µM
SF-268 CNS
  GI50: 48.6 µM
  TGI: > 100 µM
SF-539 CNS
  GI50: 6.82 µM
  TGI: 20.8 µM
EKVX NSCLC
  GI50: 5.77 µM
  TGI: 95.5 µM
RPMI-8226 leukemia
  GI50: 2.59 µM
  TGI: 7.84 µM
MDA-MB-435
  GI50: 7.09 µM
  TGI: 35.4 µM
MCF7 breast
  GI50: 3.42 µM
  TGI: > 100 µM
A549 NSCLC
  GI50: 13.1 µM
  TGI: > 100 µM
SNB-75 CNS
  GI50: 1.71 µM
  TGI: > 100 µM
NCI-H522 lung
  GI50: 10.4 µM
  TGI: 22.8 µM
SK-MEL-5 melanoma
  GI50: 10.9 µM
  TGI: 23.4 µM
SK-MEL-28 melanoma
  GI50: 27.2 µM
  TGI: > 100 µM
CAKI-1 renal
  GI50: 18.6 µM
  TGI: > 100 µM
HCT-116 colon
  GI50: 3.52 µM
  TGI: 15.5 µM
NCI-H226 lung
  GI50: 6.32 µM
  TGI: 42.4 µM
786-0 renal
  GI50: 14.4 µM
  TGI: 40.5 µM
BT-549 breast
  GI50: 2.17 µM
  TGI: 9.12 µM
OVCAR-8 ovarian
  GI50: 4.98 µM
  TGI: 29 µM
SK-MEL-2 melanoma
  GI50: 6.22 µM
  TGI: 21.9 µM
HT29 colon
  GI50: 5.8 µM
  TGI: 39.7 µM
OVCAR-3 ovarian
  GI50: 3.66 µM
  TGI: 13.1 µM
KM12 colon
  GI50: 11.7 µM
  TGI: > 100 µM
ACHN renal
  GI50: 12.7 µM
  TGI: > 100 µM
